This note sets out measurements from article PMC12191008, “Heterostilbene Carbamates with Selective and Remarkable Butyrylcholinesterase Inhibition: Computational Study and Physico-Chemical Properties” (Biomolecules, 2025).

For orientation: IC50 means the concentration that gives 50% inhibition. Broadly, the inhibition is how much of the control response was suppressed.

Each structure is given as a SMILES string. Where “and” joins values, the source holds several entries; their conditions need not be identical. Equal entries are not always repeated. Where two headings read alike, the source gives them in different places.

Test [1] addresses BChE (EC 3.1.1.8, equine serum) (Equus caballus, UniProt P81908). Briefly: In vitro ChE activity assay (modified Ellman), BChE. It counts as biochemical. To be noted: for inhibition at 500 µM / inhibition at 50 µM: read-out: BChE % Inhibition. On the technique in general: Ellman's reagent forms a yellow product with free thiols.
The test system of test [2] is LPS-stimulated TNFα production in PBMCs. Briefly: LPS-stimulated TNFα production in PBMCs (ELISA). Type of test: cell-based. The settings on record: Homo sapiens, PBMC, read-out: IC50, inhibition of LPS-stimulated TNFα production. The protocol: The effect of compounds on lipopolysaccharide (LPS)-stimulated tumor necrosis factor alpha (TNFα) production was evaluated as described previously. In short, peripheral blood mononuclear cells (PBMCs) were isolated from buffy coats obtained from healthy adult volunteers and resuspended in RPMI1640 medium (Capricorn Scientific, Ebsdorfergrund, Germany) supplemented with 10% heat-inactivated FBS (Biowest, Bradenton, FL, USA), 1% GlutaMAX (Gibco, Waltham, MA, USA), and 1% antibiotic–antimycotic (Gibco). Then, 2 × 10^5 PBMCs were seeded per well of a 96-well plate. […]
TNFα concentration in supernatants was measured by ELISA using antibodies and recombinant human TNFα protein (standard) from R&D Systems. […] Finally, after the plates were incubated with streptavidin-HRP (Invitrogen, Waltham, MA, USA), chemiluminescence ELISA Substrate (Roche, Basel, Switzerland) was added to the wells, and luminescence was measured using an EnVision 2105 multilabel reader (Revvity, Waltham, MA, USA). Measured luminescence was used to calculate concentrations of TNFα in the supernatants by interpolation from the standard curve. Percentages of inhibition were calculated from obtained cytokine concentrations, and IC50 values were determined using GraphPad Prism v9 software with a nonlinear regression curve fit (four parameters with variable slope).
A general note: In an ELISA, binding on a coated surface is turned into a signal by an enzyme label.

The mark [3] stands for this setting: at maximal concentration tested, 50 μM.
Where [4] appears, read: at maximal concentration tested.

Sequence of BChE (EC 3.1.1.8, equine serum) (P81908 whole entry): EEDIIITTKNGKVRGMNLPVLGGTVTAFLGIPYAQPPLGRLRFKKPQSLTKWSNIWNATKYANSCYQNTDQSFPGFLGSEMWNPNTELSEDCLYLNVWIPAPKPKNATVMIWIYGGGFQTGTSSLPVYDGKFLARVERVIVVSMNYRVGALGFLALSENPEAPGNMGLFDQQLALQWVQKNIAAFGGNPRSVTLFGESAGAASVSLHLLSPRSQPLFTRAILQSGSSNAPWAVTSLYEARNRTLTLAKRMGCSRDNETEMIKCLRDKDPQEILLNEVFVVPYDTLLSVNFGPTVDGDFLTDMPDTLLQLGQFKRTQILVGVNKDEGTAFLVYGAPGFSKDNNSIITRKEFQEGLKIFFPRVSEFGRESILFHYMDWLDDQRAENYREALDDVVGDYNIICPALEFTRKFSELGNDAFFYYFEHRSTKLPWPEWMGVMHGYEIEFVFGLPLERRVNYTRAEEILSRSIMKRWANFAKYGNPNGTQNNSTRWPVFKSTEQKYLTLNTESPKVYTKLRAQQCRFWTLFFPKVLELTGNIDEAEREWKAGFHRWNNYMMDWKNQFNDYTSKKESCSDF

In the case of `CCN(C)C(=O)Oc1ccccc1/C=C/c1ccc(C)s1` [Compound 14, (E)-2-(2-(5-methylthiophen-2-yl)vinyl)phenyl ethyl(methyl)carbamate], the results for the IC50 in test [1] (BChE IC50) and in test [1] (read-out: BChE IC50) were 85100 nM and 90000 nM, respectively. This compound also registered an inhibition at 250 µM in test [1] (at maximal concentration tested, 250 μM) of 70 ± 0.8%.
As to `CNC(=O)Oc1ccc(OC)cc1/C=C/c1cccs1` [Compound 3, (E)-4-methoxy-2-(2-(thiophen-2-yl)vinyl)phenyl methylcarbamate], in test [1] (at maximal concentration tested, 500 μM), the inhibition at 500 µM amounted to 82.2 ± 2%. Besides, in test [1] (read-out: BChE IC50), the IC50 worked out at 150000 nM.
Consider `CCN(C)C(=O)Oc1cccc(/C=C/c2cccs2)c1` [Compound 12, (E)-3-(2-(thiophen-2-yl)vinyl)phenyl ethyl(methyl)carbamate], for which the 50% inhibitory concentration (IC50) amounted to 1500 nM in test [1] (BChE IC50) and 1070 nM in test [1] (read-out: BChE IC50). Further, the inhibition at 50 µM in test [1] (setting [3]) is 83.2 ± 0.84%.
On to `O=C(Oc1cccc(/C=C/c2cccs2)c1)N1CCOCC1` [Compound 19, (E)-3-(2-(thiophen-2-yl)vinyl)phenyl morpholine-4-carboxylate], for which the inhibition at 50 µM in test [1] (setting [3]) came to 79.7 ± 2.51%. The 50% inhibitory concentration (IC50) in test [1] (read-out: BChE IC50) amounted to 2040 nM.
In the case of `CNC(=O)Oc1ccc(F)cc1/C=C/c1cccs1` [Compound 2, (E)-4-fluoro-2-(2-(thiophen-2-yl)vinyl)phenyl methylcarbamate], in test [1] (setting [4]), the inhibition at 100 µM was found to be 84.7 ± 3.2%. For the same compound, the half-maximal inhibitory concentration (IC50) in test [1] (read-out: BChE IC50) is 3740 nM.
`O=C(Oc1ccc(F)cc1/C=C/c1cccs1)N1CCOCC1` [Compound 17, (E)-4-fluoro-2-(2-(thiophen-2-yl)vinyl)phenyl morpholine-4-carboxylate] yielded an inhibition at 25 µM in test [1] (setting [4]) of 82.3 ± 2.44%. Further, the IC50 in test [1] (read-out: BChE IC50) worked out at 645 nM.
In test [1] (BChE IC50), `CNC(=O)Oc1ccc(F)cc1/C=C/c1ccc(C)s1` [Compound 6, (E)-4-fluoro-2-(2-(5-methylthiophen-2-yl)vinyl)phenyl methylcarbamate] came in with a concentration for half-maximal inhibition (IC50) of 14100 nM. Besides, in test [1], the inhibition at 50 µM turned out to be 74 ± 3.2%.
Consider `CNC(=O)Oc1ccc(Cl)cc1/C=C/c1ccc(C)s1` [Compound 7, (E)-4-chloro-2-(2-(5-methylthiophen-2-yl)vinyl)phenyl methylcarbamate], for which, in test [1] (setting [4]), the inhibition at 100 µM came out at 69.8 ± 1.15%. Further, the IC50 in test [1] (read-out: BChE IC50) was found to be 30400 nM.
In test [1] (setting [4]), `CCN(C)C(=O)Oc1ccccc1/C=C/c1cccs1` [Compound 9, (E)-2-(2-(thiophen-2-yl)vinyl)phenyl ethyl(methyl)carbamate] displayed an inhibition at 10 µM of 83.9 ± 1.77%. Also, in test [1] (read-out: BChE IC50), the IC50 was determined as 583 nM.
Taken in the same sequence, the figures for `CCN(C)C(=O)Oc1ccc(C)cc1/C=C/c1cccs1` [Compound 11, (E)-4-methyl-2-(2-(thiophen-2-yl)vinyl)phenyl ethyl(methyl)carbamate] were 82.8 ± 1.57% and 1540 nM.
Regarding `CCN(C)C(=O)Oc1cc(OC)ccc1/C=C/c1cccs1` [Compound 13, (E)-5-methoxy-2-(2-(thiophen-2-yl)vinyl)phenyl ethyl(methyl)carbamate], in test [1] (setting [4]), testing at 25 µM gave an inhibition of 84.4 ± 2.29%. The IC50 in test [1] (read-out: BChE IC50) amounted to 1880 nM.
For `CNC(=O)Oc1ccc(C)cc1/C=C/c1cccs1` [Compound 4, (E)-4-methyl-2-(2-(thiophen-2-yl)vinyl)phenyl methylcarbamate], the IC50 in test [1] (BChE IC50) was 1100 nM and 913 nM. In test [1] (setting [4]), this compound registered an inhibition at 10 µM of 85.4 ± 2.29%.
Take `C[C@@H]1C[C@H]2[C@@H]3CCC4=CC(=O)C=C[C@]4(C)[C@@]3(F)[C@@H](O)C[C@]2(C)[C@@]1(O)C(=O)CO` [Dexamethasone, reference compound]: the IC50 in test [2] (PBMCs, reference compound) is 3.5 nM.
`Cc1ccc(OC(=O)N2CCOCC2)c(/C=C/c2cccs2)c1` [Compound 18, (E)-4-methyl-2-(2-(thiophen-2-yl)vinyl)phenyl morpholine-4-carboxylate] gave an inhibition at 25 µM in test [1] (setting [4]) of 87.5 ± 1.31%. Besides, the IC50 in test [1] (read-out: BChE IC50) was 430 nM.
In the case of `CNC(=O)Oc1ccc(Cl)cc1C=Cc1ncc(C)s1` [Compound 8, (E) and (Z)-4-chloro-2-(2-(5-methylthiazol-2-yl)vinyl)phenyl methylcarbamate], in test [1] (BChE IC50), half-maximal inhibition (IC50) was put at 59100 nM. Moreover, the inhibition at 500 µM in test [1] was found to be 87.21 ± 0.47%.
`O=C(Oc1ccccc1/C=C/c1cccs1)N1CCOCC1` [Compound 16, (E)-2-(2-(thiophen-2-yl)vinyl)phenyl morpholine-4-carboxylate] displayed an inhibition at 1 µM in test [1] (at maximal concentration tested, 1 μM) of 84.25 ± 0.82%. For the same compound, the IC50 in test [1] (read-out: BChE IC50) turned out to be 26.5 nM; in test [2] (average, PBMCs from two donors), 31600 nM.
In the case of `CNC(=O)Oc1ccccc1/C=C/c1cccs1` [Compound 1, (E)-2-(2-(thiophen-2-yl)vinyl)phenyl methylcarbamate], in test [1] (setting [4]), the inhibition at 10 µM came out at 84.4 ± 1.18%. Moreover, in test [1] (read-out: BChE IC50), the IC50 amounted to 500 nM.
Consider `CCN(C)C(=O)Oc1ccc(F)cc1/C=C/c1cccs1` [Compound 10, (E)-4-fluoro-2-(2-(thiophen-2-yl)vinyl)phenyl ethyl(methyl)carbamate], for which 27 µM produced 83.5 ± 1.49% inhibition in test [1] (at maximal concentration tested, 27 μM). For the same compound, in test [1] (read-out: BChE IC50), the IC50 was found to be 3080 nM.
`CNC(=O)Oc1ccccc1/C=C/c1ccc(C)s1` [Compound 5, (E)-2-(2-(5-methylthiophen-2-yl)vinyl)phenyl methylcarbamate]: the IC50 in test [1] (BChE IC50) was found to be 913 nM; in test [1] (read-out: BChE IC50), 1100 nM. Moreover, in test [1] (at maximal concentration tested, 5 μM), testing at 5 µM gave an inhibition of 74.8 ± 2.36%.
